Measurements from patent US20220233512A1, “INHIBITING AN IMMUNE RESPONSE MEDIATED BY ONE OR MORE OF TLR2, RAGE, CCR5, CXCR4 AND CD4” (priority 2020, published 2022).

Target: T1, mu opiate receptor (MOR) (Rattus norvegicus, UniProt P33535)
T1 construct: from tissue; host or cells: striatum (membrane preparation)
Test: MOR agonist activity using [35S]GTPgS binding assay in striatal membranes
Assay type: biochemical
Set-up: MOR agonist activity (preliminary study): unit of the concentration uncertain
Settings: for MOR agonist activity (preliminary study): average of two runs
Protocol: To assess the mu opiate receptor (MOR) agonist activity of positive compounds from the FLNA screening, compounds were tested in a [^35S]GTPgS binding assay using striatal membranes. […] This assay measures a functional consequence of receptor occupancy at one of the earliest receptor-mediated events. The assay permits for traditional pharmacological parameters of potency, efficacy and antagonist affinity, with the advantage that agonist measures are not subjected to amplification or other modulation that may occur when analyzing parameters further downstream of the receptor.
Thus, striatal tissue was homogenized in 10 volumes of ice cold 25 mM HEPES buffer, pH 7.4, which contained 1 mM EGTA, 100 mM sucrose, 50 mg/ml leupeptin, 0.04 mM PMSF, 2 mg/ml soybean trypsin inhibitor and 0.2% 2-mercaptoethanol. The homogenates were centrifuged at 800×g for 5 minutes and the supernatants were centrifuged at 49,000×g for 20 minutes. The resulting pellets were suspended in 10 volume of reaction buffer, which contained 25 mM HEPES, pH 7.5, 100 mM NaCl, 50 mg/ml leupeptin, 2 mg/ml soybean trypsin inhibitor, 0.04 mM PMSF and 0.02% […].
The resultant striatal membrane preparation (200 mg) was admixed and maintained (incubated) at 30° C. for 5 minutes in reaction buffer as above that additionally contained 1 mM MgCl2 and 0.5 nM [^35S]GTPgS (0.1 mCi/assay, PerkinElmer Life and Analytical Sciences) in a total volume of 250 ml and continued for 5 minutes in the absence or presence of 0.1-10 mM of an assayed compound of interest. The reaction was terminated by dilution with 750 ml of ice-cold reaction buffer that contained 20 mM MgCl2 and 1 mM EGTA and immediate centrifugation at 16,000×g for 5 minutes.
The resulting pellet was solubilized by sonicating for 10 seconds in 0.5 ml of immunoprecipitation buffer containing 0.5% digitonin, 0.2% sodium cholate and 0.5% NP-40. Normal rabbit serum (1 ml) was added to 1 ml of lysate and incubated at 25° C. for 30 minutes. Nonspecific immune complexes were removed by incubation with 25 ml of protein A/G-conjugated agarose beads at 25° C. for 30 minutes followed by centrifugation at 5,000×g at 4° C. for 5 minutes. The supernatant was divided and separately incubated at 25° C. for 30 minutes with antibodies raised against Gao proteins (1:1,000 dilutions).
The immunocomplexes so formed were collected by incubation at 25° C. for 30 minutes with 40 ml of agarose-conjugated protein A/G beads and centrifugation at 5,000×g at 4° C. for 5 minutes. The pellet was washed and suspended in buffer containing 50 mM Tris-HCl, pH 8.0, and 1% NP-40. The radioactivity in the suspension was determined by liquid scintillation spectrometry. […] DAMGO (1 or 10 mM) was used as a positive control.

[1] = 0.1 μM compound as agonist, Series C-2 table
[2] = 1 μM compound as agonist, Series C-2 table
[3] = 0.1 μM compound as agonist, Series C-1 table
[4] = 1 μM compound as agonist, Series C-1 table

T1 sequence (P33535 whole entry): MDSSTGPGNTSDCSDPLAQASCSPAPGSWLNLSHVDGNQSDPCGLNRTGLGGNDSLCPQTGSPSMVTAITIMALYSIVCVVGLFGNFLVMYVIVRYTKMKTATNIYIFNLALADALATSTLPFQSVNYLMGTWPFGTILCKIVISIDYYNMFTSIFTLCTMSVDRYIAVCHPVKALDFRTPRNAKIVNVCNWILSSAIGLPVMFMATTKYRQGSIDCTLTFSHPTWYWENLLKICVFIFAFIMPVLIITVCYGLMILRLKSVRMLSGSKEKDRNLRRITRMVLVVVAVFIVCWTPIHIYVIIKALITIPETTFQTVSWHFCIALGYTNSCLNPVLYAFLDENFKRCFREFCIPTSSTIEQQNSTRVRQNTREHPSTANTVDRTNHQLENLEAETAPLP

Compound | MOR agonist activity ([35S]GTPgS binding to Gao) [1] | MOR agonist activity ([35S]GTPgS binding to Gao) (1 μM + BFNA, Series C-2 table) | MOR agonist activity ([35S]GTPgS binding to Gao) [2] | MOR agonist activity ([35S]GTPgS binding to Gao) [3] | MOR agonist activity ([35S]GTPgS binding to Gao) (1 μM + BFNA, Series C-1 table) | MOR agonist activity ([35S]GTPgS binding to Gao) [4] | also measured
O=C1CN(Cc2ccccc2)C2(CCN(C3CCCCC3)CC2)N1 [C0137M P7] | 180.8% | 55.8% | 193.8% |  |  |  | 
COc1ccc(NC(=O)N2CCC3(CC2)NCCO3)cc1 [Compound C0151M-2] | 346.8% | 212.8% | 397.6% |  |  |  | 
O=C(c1ccc([N+](=O)[O-])cc1)N1CCC2(CC1)OCCN2S(=O)(=O)c1ccc([N+](=O)[O-])cc1 [Compound C0033] |  |  |  | 134.5% | 76.6% | 186.4% | 
O=S(=O)(c1ccc2ccccc2c1)N1CCC2(CC1)OCCN2S(=O)(=O)c1ccc2ccccc2c1 [Compound C0140M] |  |  |  | 126.1% | 83.0% | 215.4% | 
CC(=O)c1ccc(S(=O)(=O)N2CCC3(CC2)OC(CN(C)C)CN3S(=O)(=O)c2ccc(C(C)=O)cc2)cc1 (stereo not drawn) [Compound C0065] |  |  |  | 198.3% | 47.7% | 279.5% | 
COc1ccc(NC(=O)N2CCC3(CC2)OCCN3S(=O)(=O)c2ccc(OC)cc2)cc1 [Compound C0041] |  |  |  | 186.1% | 95.5% | 244.4% | 
CCCCN1CCC2(CC1)OCCN2S(=O)(=O)c1ccc(OC)cc1 [Compound C0102M] | 131.8% | 150.4% | 272.0% |  |  |  | 
CC(=O)c1ccc(S(=O)(=O)N2CC(CN(C)C)OC23CCN(CC2CC2)CC3)cc1 (stereo not drawn) [Compound C0128M] | 197.8% | 63.9% | 286.0% |  |  |  | 
COc1ccc(C(=O)N2CCOC23CCN(S(=O)(=O)c2ccc(OC)cc2)CC3)cc1 [Compound C0019] |  |  |  | 104.4% | 52.8% | 176.6% | 
COc1ccc(S(=O)(=O)N2CCC3(CC2)NCCC(=O)N3)cc1 [Compound C0142M] | 143.7% | 98.7% | 192.5% |  |  |  | 
NS(=O)(=O)c1ccc(S(=O)(=O)N2CCC3(CC2)OCCN3S(=O)(=O)c2ccc(S(N)(=O)=O)cc2)cc1 [Compound C0034] |  |  |  | 103.6% | 80.1% | 167.9% | 
COc1ccc(S(=O)(=O)N2CCC3(CC2)NCCO3)cc1 [Compound C0026] | 207.2% | 21.2% | 288.4% |  |  |  | 
Cc1cccc(S(=O)(=O)N2CCC3(CC2)OCCN3S(=O)(=O)c2cccc(C)c2)c1 [Compound C0014] |  |  |  | 144.9% | 76.3% | 153.5% | 
COc1ccc(S(=O)(=O)N2CCOC23CCCNC3)cc1 (stereo not drawn) [Compound C0145M-3] | 193.0% | 87.0% | 289.2% |  |  |  | 
O=C1CNC2(CCNCC2)N1Cc1ccccc1 [Compound C0114M] | 114.0% | 35.9% | 144.3% |  |  |  | 
CS(=O)(=O)c1ccc(S(=O)(=O)N2CCOC23CCN(CC2CC2)CC3)cc1 [Compound C0126M] | 181.8% | 108.5% | 265.3% |  |  |  | 

Compound | MOR agonist activity ([35S]GTPgS binding to Gao) [1] | MOR agonist activity ([35S]GTPgS binding to Gao) (1 μM + BFNA, Series C-2 table) | MOR agonist activity ([35S]GTPgS binding to Gao) [2] | MOR agonist activity ([35S]GTPgS binding to Gao) [3] | MOR agonist activity ([35S]GTPgS binding to Gao) (1 μM + BFNA, Series C-1 table) | MOR agonist activity ([35S]GTPgS binding to Gao) [4] | also measured
O=S(=O)(c1ccccc1)N1CCC2(CC1)OCCN2S(=O)(=O)c1ccccc1 [Compound C0016] |  |  |  | 172.7% | 96.7% | 230.5% | 
CN1CCC2(CC1)OCCN2S(=O)(=O)c1ccc(S(C)(=O)=O)cc1 [Compound C0106M] | 171.8% | 117.2% | 240.7% |  |  |  | 
CC(=O)c1ccc(S(=O)(=O)N2CC(=O)NC23CCNCC3)cc1 [Compound C0086M] | 206.8% | 152.3% | 265.3% |  |  |  | 
COc1cccc(S(=O)(=O)N2CCC3(CC2)OCCN3S(=O)(=O)c2cccc(OC)c2)c1 [Compound C0002] |  |  |  | 88.4% | 3.9% | 93.8% | 
O=S(=O)(c1cccs1)N1CCC2(CC1)OCCN2S(=O)(=O)c1cccs1 [Compound C0141M] |  |  |  | 161.5% | 47.9% | 213.9% | 
O=C1CN(Cc2ccccc2)C2(CCNCC2)N1 [Compound C0115M] | 177.2% | 118.4% | 226.8% |  |  |  | 
COc1ccc(C(=O)N2CCC3(CC2)OCCN3S(=O)(=O)c2ccc(OC)cc2)cc1 [Compound C0018] |  |  |  | 195.5% | 106.5% | 247.7% | 
COc1ccc(S(=O)(=O)N2CCCC3(C2)OCCN3S(=O)(=O)c2ccc(OC)cc2)cc1 (stereo not drawn) [Compound C0145M] |  |  |  | 193.0% | 87.0% | 289.2% | 
O=C1CN(Cc2ccccc2)C2(CCN(CC3CC3)CC2)N1 [Compound C0125M] | 168.6% | 159.7% | 195.2% |  |  |  | 
Cc1ccc(S(=O)(=O)N2CCOC23CCN(CC2CCC2)CC3)cc1 [Compound 9] |  |  |  |  |  |  | MOR agonist activity (preliminary study) (1 mM + bNFA): 56.6%; MOR agonist activity (preliminary study) (0.1 (unit uncertain) compound as agonist): 156.6%; MOR agonist activity (preliminary study) (1 (unit uncertain) compound as agonist): 197.2%
O=S(=O)(c1ccc(F)c(F)c1)N1CCC2(CC1)OCCN2S(=O)(=O)c1ccc(F)c(F)c1 [Compound C0072] |  |  |  | 172.7% | 67.1% | 259.1% | 
CC(=O)c1ccc(S(=O)(=O)N2CCC3(CC2)OCC(CCCCN(C)C)N3S(=O)(=O)c2ccc(C(C)=O)cc2)cc1 (stereo not drawn) [Compound C0080] |  |  |  | 187.9% | 167.1% | 205.4% | 
COc1ccc(S(=O)(=O)N2CCC3(CC2)OCCN3S(=O)(=O)c2ccc(C(C)=O)cc2)cc1 [Compound C0048] |  |  |  | 209.1% | 89.9% | 245.3% | 
O=[N+]([O-])c1ccc(S(=O)(=O)N2CCC3(CC2)NCCO3)cc1 [Compound C0040] | 145.8% | 90.4% | 308.3% |  |  |  | 
O=S(=O)(c1ccc(Br)cc1C(F)(F)F)N1CCC2(CC1)OCCN2S(=O)(=O)c1ccc(Br)cc1C(F)(F)F [Compound C0068] |  |  |  | 107.2% | 165.9% | 263.1% | 
O=S(=O)(c1ccc(Br)cc1Br)N1CCC2(CC1)OCCN2S(=O)(=O)c1ccc(Br)cc1Br [Compound C0070] |  |  |  | 165.6% | 114.2% | 210.8% | 
